Results as given in patent US8436002B2, “AKT inhibitors” (Eli Lilly and Company, priority 2009, dated 2013).
pIC50: −log10 of the molar value. Where two headings read alike, the source gives them in different places. Values belong to the molecule of their own block, whether it stands above or below them.

Columns and labels:
AKT = AKT In Vivo Target Inhibition (Oral and Parenteral), U87MG tumors in athymic nude mice; details: Mus musculus, U-87 MG, after 2 hours at 12.5 mg/kg, mean of 6 animals per group
Experimental: U87MG human glioblastoma cells (5×106) are subcutaneously implanted into the flank of athymic nude mice in 0.2 mL of matrigel. Two weeks post-implantation, mice are dosed orally or parenterally according to a time course, single dose/single time point, or dose response protocol for the determination of TMED50 (threshold minimum effective dose). Tumors are flash frozen at harvest and blood is collected for the determination of parent compound plasma exposure and the calculation of TMEC50 (threshold minimum effective concentration) in the case of dose response studies. Tumors or tissues are pulverized in liquid N2 and lysed in 400 μL of XY Lysis Buffer (10 μg/mL Leupeptin, 10 μg/mL Trypsin-Chymotrypsin Inhibitor, 10 μg/mL Tosyl phenyl-alanyl chloromethyl ketone, 10 μg/mL Aprotinin, 60 mM Beta-Glycerol Phosphate, 1% Triton X100, 25 mM Tris pH 7.5, 2.5 mM Pyrophosphate, 150 mM NaCl, 2 mM p-tosyl-L-arginine methyl ester, 15 mM para-nitrophenyl phosphate, 5 mM Benzamidine, 1 mM Na Vanadate, 10 mM NaF, 50 μg/mL phenyl-methane sulfonyl fluoride, 1 mM 1,4-Dithiothreitol (DTT), 15 mM EDTA pH 8.0, 5 mM EGTA pH 8.0, 1 μM Microcystin, 1 μM Okadaic Acid, and 1 Roche Complete protease inhibitor mini-tablet per 10 mL) using Lysing Matrix D tubes (MP Biomedicals, Solon, Ohio, cat #6913-500) and a BIO101 Thermo Savant Fast Prep FP12. Lysates are aliquoted and either assayed immediately or stored at −80° C. for later testing. In Vivo Target Inhibition of AKT is measured utilizing Meso Scale Discovery (Gaithersburg, Md.) ELISA technology to assess effects on phosphorylation of the downstream effectors FOXO, PRAS40 and GSK3β(S9). In summary, 20 μg of lysate is added to carbon electrode containing 96-well plates pre-spotted with the appropriate capture antibodies. The protein of interest is probed using a ruthenium labeled detection antibody. Upon the passage of current over the electrode in the presence of read buffer containing the co-reactant TPA, electro-chemiluminescence results in the generation of light which is quantified and recorded using the MSD Sector 6000 instrument. For each study, percent inhibitions are calculated relative to the vehicle control group and ANOVA analysis is performed using the JMP software package for the determination of statistical significance.

MCF-7 = test: Cell proliferation combination study (CellTiter-Glo); type: cell-based; details: with Paclitaxel
Experimental: (§1) The proliferation assay uses the CellTiter-Glo Luminescent Cell Viability Assay System (commercially available from Promega) to determine the cell number of viable cells in culture based on quantitation of the ATP present, which signals the presence of metabolically active cells.
(§2) The cells are plated in 96-well plate at 2000 cells/well in volume of 50 μL medium (DMEM, 10% FBS, 25 mM HEPES, 1.0 mM Sodium Pyruvate, and 0.1 mM Non Essential Amino Acids) except column 1 with medium only as blank control. The plates are incubated overnight at 37° C. and 5% CO2. On the next day, compound stocks are prepared at 40 mM in DMSO (500×) and serially diluted in DMSO in a 96-well round bottom polypropylene plate. Compounds are assayed at 10 concentrations in duplicate, 4 compounds per plate.
(§3) 4 μL of the serial DMSO dilutions are transferred to a 96 deep-well plate and 1 mL complete culture medium is added to create 2× stock for dosing. 50 μL of each 2× dosing stock is gently transferred to the corresponding well of the cell plate resulting in a 0.2% DMSO concentration and a 100 μL final volume. […] medium are added to the Control columns (Column 12) and background columns (Column 1). Cells are incubated with compound for at 37° C., 5% CO2 for 72 hr.
(§4) After incubation, 100 μL of the pre-prepared CellTiter-Glo reagent (Promega, Cat: G7571) is added in each well and then the cells are homogenized by mixing on an orbital shaker for 2 min and incubated at RT for 10 minutes to allow luminescent signal stabilization Luminescent raw data is recorded on Wallac Victor V plate reader and the IC50 value for each compound is generated using percent inhibition data. A four-parameter logistic curve is fit to each dose response.
(§5) Combination studies use the fixed ratio method, where the other therapeutic agent and the compound of the present invention are present in fixed ratios of concentrations corresponding to the IC50 equivalents of single agents. The read out for the combination studies is cell proliferation in respective cell lines using Cell Titer Glo reagents. Controls are processed similarly but without the compounds. Analysis of the data is done according to the method described in Zhao et. Al. (Clinical Cancer Research 10, 7994-8004, Dec. 1, 2004) utilizing an internally developed web based tool. A combination index is calculated for each cell proliferation inhibition activity level according to the equation below. Combination Index at activity level x=[Concentration of other therapeutic agent in the combination at the activity level x/ICx of the other therapeutic agent]+[Concentration of the compound of the present invention in the combination at the activity level x/ICx of the compound of the present invention]

MDA-MB-231 = test: as above; type: cell-based; details: with Paclitaxel
Experimental: as §1, §2, §3, §4, §5

H1155 = test: as above; type: cell-based
Experimental: as §1, §2, §3, §4, §5

hAKT1 Human Recombinant = molecular target: T1, hAKT1 Human Recombinant (Homo sapiens, UniProt P31749); test: AKT1 In Vitro Enzyme Assay (Transcreener Kinase ADP-FP); type: biochemical; details: 20 micromolar ATP; read-out: IC50 against AKT1
T1 construct: His tag; host or cells: insect cells
Experimental: Compound IC50 values against AKT1 target are determined using the AKT1 Transcreener™ Kinase ADP-FP Assay. This assay assesses the activity of AKT1 in the presence of compound inhibitors by measuring the concentration of adenosine diphosphate (ADP) formed in a kinase reaction. The kinase reactions (25 μL reaction volumes) are performed in 96-well half-area black polystyrene plates. Adenosine triphosphate (ATP) is added to start the reactions. Final reaction conditions are 56 millimolar N-2-hydroxyethylpiperazine-N′-2-ethanesulfonic acid (HEPES) pH 7.4, 0.008% TRITON™ X-100, 5 millimolar magnesium chloride, 30 micromolar Crosstide peptide, 20 micromolar ATP, hAKT1 Human Recombinant, V-AKT Murine Thymoma Viral Oncogene Homolog 1, histidine-tagged, expressed in insect cells, 4% dimethylsulfoxide and serial dilutions of compound (diluted 1:3 from 20,000 to 1 nanomolar). […] Quenched reactions are incubated for 4-16 hours, and then read in a Tecan Ultra Evolution plate reader in Fluorescence Polarization mode using polarizing filters of Ex612 nm and Em633 nm wavelength. […] The IC50 value for each compound is derived using percent inhibition data which is calculated using the micromolar ADP reaction data relative to on-plate controls (active enzyme versus 100 millimolar inhibited enzyme controls). […]

[1] = molecular target: T2, ROCK2 Human recombinant enzyme (Homo sapiens, UniProt O75116); test: ROCK2 In Vitro Enzyme Assay (Transcreener Kinase ADP-FP); type: biochemical; details: 10 micromolar ATP; read-out: IC50 against ROCK2
T2 construct: ROCK2 Human recombinant enzyme (residues 11-552, histidine-tagged, expressed in insect cells); His tag; host or cells: insect cells
Experimental: Compound IC50 values against ROCK2 kinase are determined using the ROCK2 Transcreener™ Kinase ADP-FP Assay. This assay assesses the activity of ROCK2 in the presence of compound inhibitors by measuring the concentration of ADP formed in a kinase reaction. The kinase reactions (25 μL reaction volumes) are performed in 96-well half-area black polystyrene plates. Enzyme is added to start the reactions. Final reaction conditions are 20 millimolar 3-(N-Morpholino)-propanesulfonic acid pH 7.4, 4 millimolar beta-glycero-phosphate, 0.01% TRITON™ X-100, 5 millimolar magnesium chloride, 25 micromolar peptide substrate (sequence RFARKGSLRQKNV (SEQ ID NO:1)), 10 micromolar ATP, ROCK2 Human recombinant enzyme (residues 11-552, histidine-tagged, expressed in insect cells), 4% dimethysulfoxide and serial dilutions of compound (diluted 1:3 from 20,000 to 1 nanomolar). […] Quenched reactions are incubated for 4-16 hours, and then read in a Tecan Ultra Evolution plate reader in Fluorescence Polarization mode using polarizing filters of Ex612 nm and Em633 nm wavelength. […] The IC50 value for each compound is derived using percent inhibition data which is calculated using the micromolar ADP reaction data relative to on-plate controls (active enzyme versus 100 millimolar EDTA-inhibited enzyme controls). […]

[2] = system: phosphorylated GSK3β (S9) in U87MG cells; test: AlphaScreen SureFire detection of phosphorylated GSK3β (S9) in U87MG cells; type: cell-based; details: Homo sapiens, U-87 MG, 1 hour, read-out: IC50, formation of phosphorylated GSK3β (S9)
Experimental: The effect of compounds on the formation of endogenous phosphorylated GSK3β serine 9 (pGSK3β) are measured using the AlphaScreen SureFire® for pGSK3β(TGRGBS10K). This is a homogeneous assay format using immuno-sandwich capture of the phosphorylated analyte followed by detection using antibody-coated Alphascreen beads to generate an amplified signal.
U87MG cells are maintained in U87MG growth medium consisting of DMEM supplemented with 10% Fetal bovine serum, 1% Nonessential amino acids and 1% sodium pyruvate. For the assay, cells are harvested by standard procedures and then counted using Vi-Cell. Cells (50,000/well) are plated in 100 μL of U87MG growth medium into Costar #3596 96 well plates. Plates are incubated overnight at 37° C., 5% CO2.
On the day of the assay, cells are treated with 20 μL/well compound diluted in media containing 6% dimethylsulfoxide. […] The plate is sealed with foil, incubated at room temperature for 4 hours with gentle shaking and then read on Perkin Elmer EnVision equipped with a TurboModule using standard AlphaScreen® settings (Ex680 nm and Em520-620 nm). The percent inhibition determined from controls on each plate and ten-point compound concentration data are then fit to a four-parameter logistic equation using ACTIVITYBASE 4.0 (Assay Guidance Manual Version 5.0, 2008, Eli Lilly and Company and NIH Chemical Genomics Center).

T2 sequence (O75116 11-552): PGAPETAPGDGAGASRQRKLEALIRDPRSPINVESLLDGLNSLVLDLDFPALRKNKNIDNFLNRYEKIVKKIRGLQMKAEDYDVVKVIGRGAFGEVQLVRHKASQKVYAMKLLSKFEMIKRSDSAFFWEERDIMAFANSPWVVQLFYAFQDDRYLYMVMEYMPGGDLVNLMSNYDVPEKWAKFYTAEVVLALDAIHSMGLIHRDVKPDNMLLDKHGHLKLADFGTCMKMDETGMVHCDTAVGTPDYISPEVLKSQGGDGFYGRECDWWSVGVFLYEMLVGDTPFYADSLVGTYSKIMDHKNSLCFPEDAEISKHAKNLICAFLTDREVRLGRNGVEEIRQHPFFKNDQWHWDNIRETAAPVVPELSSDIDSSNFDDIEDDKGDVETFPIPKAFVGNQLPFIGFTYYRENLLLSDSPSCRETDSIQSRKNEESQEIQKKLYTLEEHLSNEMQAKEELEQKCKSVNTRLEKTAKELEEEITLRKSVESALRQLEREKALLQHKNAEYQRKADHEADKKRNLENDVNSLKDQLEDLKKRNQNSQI
T1 sequence (P31749 whole entry): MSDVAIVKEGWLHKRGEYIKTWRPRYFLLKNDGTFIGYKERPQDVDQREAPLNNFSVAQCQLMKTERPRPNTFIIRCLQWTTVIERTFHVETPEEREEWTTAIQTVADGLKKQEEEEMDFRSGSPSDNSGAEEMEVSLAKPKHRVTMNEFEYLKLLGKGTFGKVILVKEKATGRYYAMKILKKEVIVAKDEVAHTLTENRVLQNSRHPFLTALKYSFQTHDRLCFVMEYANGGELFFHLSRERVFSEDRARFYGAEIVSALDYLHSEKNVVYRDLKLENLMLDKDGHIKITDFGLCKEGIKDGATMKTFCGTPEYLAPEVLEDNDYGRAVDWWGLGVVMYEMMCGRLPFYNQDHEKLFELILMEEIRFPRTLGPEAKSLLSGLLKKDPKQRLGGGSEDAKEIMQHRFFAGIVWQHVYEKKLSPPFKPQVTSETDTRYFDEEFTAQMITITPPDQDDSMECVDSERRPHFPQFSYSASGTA

Structure (SMILES): CCc1cn(CCN2CCCC2)c(C2CCN(c3ncnc4c3[C@H](C(F)(F)F)CC(=O)N4)CC2)n1 [Example 26, (R)-4-(4-(4-ethyl-1-(2-(pyrrolidin-1-yl)ethyl)-1H-imidazol-2-yl)piperidin-1-yl)-5-(trifluoromethyl)-5,6-dihydropyrido[2,3-d]pyrimidin-7(8H)-one]
inhibition at 12.5 mg/kg (AKT; read-out: Mean % Inhibition FOXO3a (T32)): 36.8%
inhibition at 12.5 mg/kg (AKT; read-out: Mean % Inhibition pAKT (S473)): 21.7%
inhibition at 12.5 mg/kg (AKT; read-out: Mean % Inhibition pGSK3β (S9)): 34.4%
inhibition at 12.5 mg/kg (AKT; read-out: Mean % Inhibition pPRAS40 (T246)): 8.1%

Structure (SMILES): C[C@@H]1CC(=O)Nc2ncnc(N3CCC(c4nc(C5CCOCC5)cn4CCN4CCCC4)CC3)c21 [Example 73, (R)-5-Methyl-4-(4-(1-(2-(pyrrolidin-1-yl)ethyl)-4-(tetrahydro-2H-pyran-4-yl)-1H-imidazol-2-yl)piperidin-1-yl)-5,6-dihydropyrido[2,3-d]pyrimidin-7(8H)-one]
Combination Index at 50% Inhibition (MCF-7): 0.56
Combination Index at 50% Inhibition (MDA-MB-231): 1.25
Combination Index at 50% Inhibition (H1155; with Cisplatin): 0.82
Combination Index at 50% Inhibition (H1155; with Gemcitabine): 0.87
Combination Index at 50% Inhibition (H1155; with Pemetrexed): 0.29

pIC50 (hAKT1 Human Recombinant): 7.77
pIC50 [1]: < 4.70
pIC50 [2]: 5.82
Structure (SMILES): C[C@@H]1CC(=O)Nc2ncnc(N3CCC(c4nc(Cl)cn4CCN4CCCC4)CC3)c21 [Example 41, (R)-4-(4-(4-chloro-1-(2-(pyrrolidin-1-yl)ethyl)-1H-imidazol-2-yl)piperidin-1-yl)-5-methyl-5,6-dihydropyrido[2,3-d]pyrimidin-7(8H)-one]
